Assay results taken from patent US20220257764A1, “USE OF DIKETONE COMPOUND IN PHOTODYNAMIC THERAPY OR DIAGNOSIS” (BEIJING WHOLESOMETECH CO., LTD., priority 2019, published 2022).
Read-outs that look alike come from different tables or passages of the source.

Assays:
[1] = system: human immortalized keratinocyte (Hacat cells); experiment: MTT cytotoxicity to normal cells, Experimental Example 5; format: cell-based
Experimental: (§1) (1) Logarithmic phase cells were collected, the concentration of a cell suspension was adjusted, the cell suspension was added to a cell culture plate in a dose of 100 μL per well, and the cells were then added to a cell culture plate so that the density of the cells to be tested was adjusted to 1000-10000 wells (edge wells were filled with sterile PBS). […] Generally, the drug in 5 to 7 gradients was added in a dose of 100 μL per well, and 3 to 5 wells were set for each concentration of a drug. […] Cells in the experimental photosensitizer-light irradiation group were incubated for 15 min and then irradiated with light. […] After light irradiation, the cells were washed with PBS. […] After light irradiation, the cells were washed with PBS. […] If the drug could react with the MTT, centrifuging was carried out first, and then the culture solution was discarded and the cells were carefully washed twice or three times with PBS, and then the culture solution containing MTT was added. (6) The culture was terminated and the culture solution in the wells was carefully removed. (7) Dimethyl sulfoxide was added in a dose of 150 μL per well, and the plate was then shaken on a shaker at a low speed for 10 min to fully dissolve crystals. The absorbance at OD 490 nm of each well was measured with enzyme-linked immunoassay. […]

[2] = system: Escherichia coli; experiment: Inhibitory effect on bacteria (colony counting), under light and in the dark; format: cell-based; details: 60 mM
Experimental: A single Escherichia coli colony was transferred from a solid Luria Bertani (LB) agar plate to 5 ml liquid LB medium and incubated at 37° C. for 12 h. Bacteria were collected by centrifugation (7000 rpm, 1 min) and washed with PBS buffer three times. The supernatant was discarded, and the remaining Escherichia coli cells were resuspended in the PBS buffer. The bacterial suspension was adjusted to make its optical density (OD600) to 1.0. The suspension was then diluted (5 times) with PBS buffer. The diluted Escherichia coli cell suspension was incubated in the dark at 37° C. for 15 min in the presence of a photosensitizer (diketone compound) solution with a concentration of 60 mM, and then irradiated for 200 s under a 15 mW/cm^2 laser light (with a wavelength of 450 nm to 480 nm and in the final light dose of about 3 J cm^2), and after the irradiation the bacterial suspension was serially diluted (10^4 times) with PBS buffer. 100 μL of the diluted bacterial Escherichia coli cell was dispersed on a solid LB agar plate and incubated at 37° C. for 12 h to 16 h, and colonies formed were counted. In the meanwhile, a treated group in the dark and an untreated group in the dark were set; the inhibition rate was determined by dividing the number of colony forming units (cfu) killed in the treated group under light or the treated group in the dark by the number of colony forming units (cfu) killed in the untreated group in the dark.

[3] = Phototoxicity to healthy mice (body weight, blood routine, blood biochemistry); format: in vivo, BALB/C mice
Experimental: BALB/C mice were divided into 2 groups in total, 9 mice in each group. The mice were fed adaptively for 2 days. Mice in a control group were fed normally, and mice in an experimental group were given photodynamic therapy by subcutaneous injection every other day under the irradiation of laser with a wavelength of 450 nm to 480 nm at a light intensity of 200 mW/cm^2.
Administration mode: as shown in the table below, the photosensitizer was dissolved in physiological saline and subcutaneously injected in mice in the experimental group, and the group receiving photodynamic therapy was irradiated with light immediately after the injection.
2. The mice in the experimental group and the control group were weighed every other day. At the end of the experiment, the mice were subjected to blood collection for serum separation and necropsy, and blood routine indicators (including WBC, RBC, LY, PLT and many other blood routine indicators) and blood biochemical indicators (including routine blood biochemical indicators) were tested and analyzed in the Laboratory of Peking University Third Hospital.

[4] = system: human cervical cancer Hela cells; experiment: MTT cytotoxicity, Experimental Example 5; format: cell-based
Experimental: as §1

[5] = 3% subcutaneous injection + light 10 min, after 2 weeks

## CC(=O)C(C)=O [BJMU-204]
[1]
  cytotoxicity to Hacat cells: relatively low cytotoxicity
[2]; 450-480 nm laser, 15 mW/cm^2, 200 s, read-out: Inhibition rate under light
  inhibition at 60000 µM: 96%
[2]; in the dark, read-out: Inhibition rate in the dark
  inhibition at 60000 µM: 10.3%
[3]; 3% subcutaneous + light, 14 days after treatment
  body weight, experimental group vs control group: no significant difference
[3]; [5]
  Hematocrit (HCT): 45.22 ± 2.83
  Hemoglobin (HGB): 160.22 ± 12.07
  Mean corpuscular hemoglobin (MCH): 16.18 ± 0.34
  Mean corpuscular hemoglobin concentration (MCHC): 354.11 ± 8.19
  Mean corpuscular volume (MCV): 45.71 ± 0.6
  Mean platelet volume (MPV): 6.23 ± 0.37
  Platelet count (PLT): 290 ± 50.23
  Platelet distribution width (PDW): 14.84 ± 0.6
  Plateletocrit (PCT): 0.17 ± 0.03
  Red blood cell volume distribution width (RDW): 12.67 ± 0.54
  Red blood count (RBC): 9.9 ± 0.72
  White blood cell count (WBC): 6.56 ± 0.54
[3]; continuous treatment for 14 days at high concentration therapeutic doses
  liver, kidney and blood toxicity: will not cause liver, kidney and blood toxicity
[4]; given in the dark
  cytotoxicity to Hela cells: relatively low cytotoxicity
[4]; given under blue light, 450-480 nm, 110 mW/cm^2, 900 s
  cytotoxicity to Hela cells: relatively high cytotoxicity
